Data: paper PMC7663531, “Synthesis, Molecular Docking Screening and Anti-Proliferative Potency Evaluation of Some New Imidazo[2,1-b]Thiazole Linked Thiadiazole Conjugates” (Molecules, 2020)

Key:
HepG2 cells = assay: Anti-proliferative assay in vitro (SRB) on hepatic cancer cell line HepG2; format: cell-based; conditions: Homo sapiens, 72 h exposure, tested from 100 to 0.1 µg/mL, Nd: no detectable activity in the used concentrations, DMSO 1%, read-out: HepG2 IC50 ± SD
Description: (§1) The results of anti-proliferative activity were calculated based on the IC50 (inhibitory concentration 50%), the concentration of a tested compound which inhibits 50% of the cells population. IC50 esteems were determined for each examination independently and mean qualities ± SD are introduced in Table 1. The movement of every subordinate at every fixation was tried in three-fold in a solitary test; which was rehashed 3–5 times. The aftereffects of the investigations on against proliferative action of tried mixes are summed up in Table 1
(§2) Cell lines: Hep-G2 (human hepatic disease) and BALB/3T3 (murine fibroblast) are being kept up in the Institute of Cancer, Cairo, Egypt. All malignant growth cell lines were obtained from American Type Culture Collection (Rockville, Maryland, USA) and kept up in the Institute of Cancer. HepG2 cells were refined in Eagle’s minimum essential medium (EMEM) and supplemented with 10% FBS; DMEM and RPMI1640 were choices for that function also. Suction included new culture medium each 2–3 days. HepG2 cell multiplying time was 48 h. BALB/3T3 cell line was refined in DMEM and enhanced with 2 mM L-glutamine, 10% fetal ox-like serum (GE Healthcare, Logan, UT, USA). To entry cells, cell monolayer with 1× PBS were flushed twice and pre-warmed (37 °C) 0.05% Trypsin-EDTA arrangement was added to cover the lower part of the jar; brooded for 5–7 min. As cells withdrew, the trypsin was killed by including 4× volume of complete development medium with 10% FBS and delicately suspended the cells by pipetting. To abstain from clustering, the phones were not upset by shaking the jar while sitting tight for separation. Split cells 1:4 at regular intervals or 1:8 like clockwork. Societies had been brooded at 37 °C in a humidified climate with 5% CO2.
(§3) All compounds were broken up in DMSO (stock arrangement 10 mg/mL) and consequently weakened in culture medium to arrive at the necessary fixations (going from 100 to 0.1 µg/mL).
(§4) 24 h before expansion of the tried exacerbates, the cells were plated in 96-well plates (Sarstedt, Germany) at thicknesses of 1 × 10^4 cells per well. The examination was performed after 72 h introduction to shifting centralizations of the tried mixes. The in vitro cytotoxic impact of all mixes was analyzed utilizing the SRB measure.
(§5) The subtleties of this strategy were depicted by Skehan et al.. The cells were joined to the lower part of plastic wells by fixing them with cold half TCA (trichloroacetic corrosive, Sigma-Aldrich Chemie GmbH, Steinheim, Germany) on the head of the way of life medium in each well. The plates were hatched at 4 °C for 1 h and afterward washed multiple times with faucet water. The cell material fixed with TCA was recolored with 0.4% sulphorhodamine B (SRB, Sigma-Aldrich Chemie GmbH, Steinheim, Germany) disintegrated in 1% acidic corrosive for 30 min. Unbound color was taken out by flushing (multiple times) in 1% acidic corrosive. The protein-bound color was removed with 10 mMunbufferedTris base for assurance of the optical thickness (λ = 540 nm) in Synergy H4 multi-mode microplate peruser (BioTek Instruments, Winooski, VT, USA).

[1] = test system: BALB/3T3 (murine fibroblast); assay: Anti-proliferative assay in vitro (SRB) on normal cell line BALB/3T3; format: cell-based; conditions: Mus musculus, 72 h exposure, tested from 100 to 0.1 µg/mL, Nd: no detectable activity in the used concentrations, DMSO 1%, read-out: BALAB/3T3 IC50 ± SD
Description: as §1, §2, §3, §4, §5

| SMILES | melting point | IC50 (HepG2 cells) | IC50 [1] |
| --- | --- | --- | --- |
| CCOC(=O)c1nn(-c2ccc(C)cc2)c(=NN=C(C)c2sc3nc(-c4ccc(C)cc4)cn3c2C)s1 [Compound 6e, Ethyl 5-((1-(3-methyl-6-(p-tolyl)imidazo[2,1-b]thiazol-2-yl)ethylidene)hydrazono)-4-(p-tolyl)-4,5-dihydro-1,3,4-thiadiazole-2-carboxylate] | 117 to 119 °C |  |  |
| CC(=NN=c1sc(-c2ccccc2)nn1-c1cccc(-n2nc(-c3ccccc3)sc2=NN=C(C)c2sc3nc(-c4ccc(C)cc4)cn3c2C)c1)c1sc2nc(-c3ccc(C)cc3)cn2c1C [Compound 10, 1,3-Bis(2-((1-(3-methyl-6-(p-tolyl)imidazo[2,1-b]thiazol-2-yl)ethylidene)hydrazono)-5-phenyl-1,3,4-thiadiazol-3(2H)-yl)benzene] | > 300 °C | 23.5 ± 4.48 mg/L | 26.2 ± 3.21 mg/L |
| COc1cccc2c1C(=O)c1c(O)c3c(c(O)c1C2=O)C[C@@](O)(C(=O)CO)C[C@@H]3O[C@H]1C[C@H](N)[C@H](O)[C@H](C)O1 [Doxorubicin, reference compound] |  | 3.56 ± 0.46 mg/L | 3.21 ± 0.32 mg/L |
| CC(=O)c1nn(-c2ccc(S(=O)(=O)c3ccc(-n4nc(C(C)=O)s/c4=N\N=C(/C)c4sc5nc(-c6ccc(C)cc6)cn5c4C)cc3)cc2)/c(=N/N=C(\C)c2sc3nc(-c4ccc(C)cc4)cn3c2C)s1 [Compound 12, 1,1’-(4,4’-(Sulfonylbis(4,1-phenylene))bis(5-((1-(3-methyl-6-(p-tolyl)imidazo[2,1-b]thiazol-2-yl)ethylidene)hydrazono)-4,5-dihydro-1,3,4-thiadiazole-4,2-diyl))diethanone] | > 300 °C | 12.7 ± 1.36 mg/L | 8.34 ± 1.81 mg/L |
| CCOC(=O)c1nn(-c2ccccc2)c(=NN=C(C)c2sc3nc(-c4ccc(C)cc4)cn3c2C)s1 [Compound 6d, Ethyl 5-((1-(3-methyl-6-(p-tolyl)imidazo[2,1-b]thiazol-2-yl)ethylidene)hydrazono)-4-phenyl-4,5-dihydro-1,3,4-thiadiazole-2-carboxylate] | 235 to 237 °C | 41.1 ± 8.32 mg/L |  |
| COc1ccc(-n2nc(C(C)=O)sc2=NN=C(C)c2sc3nc(-c4ccc(C)cc4)cn3c2C)cc1 [Compound 6b, 1-(4-(4-Methoxyphenyl)-5-((1-(3-methyl-6-(p-tolyl)imidazo[2,1-b]thiazol-2-yl)ethylidene) hydrazono)-4,5-dihydro-1,3,4-thiadiazol-2-yl)ethanone] | 216 to 218 °C | 59.2 ± 9.27 mg/L |  |
| CC(=O)c1nn(-c2ccc(Cl)cc2)c(=NN=C(C)c2sc3nc(-c4ccc(C)cc4)cn3c2C)s1 [Compound 6c, 1-(4-(4-Chlorophenyl)-5-((1-(3-methyl-6-(p-tolyl)imidazo[2,1-b]thiazol-2-yl)ethylidene) hydrazono)-4,5-dihydro-1,3,4-thiadiazol-2-yl)ethanone] | 192 to 194 °C |  |  |
| CC(=NN=c1sc(-c2ccccc2)nn1-c1ccccc1)c1sc2nc(-c3ccc(C)cc3)cn2c1C [Compound 6i, 2-(1-((3,5-Diphenyl-1,3,4-thiadiazol-2(3H)-ylidene)hydrazono)ethyl)-3-methyl-6-(p-tolyl) imidazo[2,1-b]thiazole] | 273 to 275 °C |  |  |
| CCOC(=O)c1nn(-c2ccc(Br)cc2)c(=NN=C(C)c2sc3nc(-c4ccc(C)cc4)cn3c2C)s1 [Compound 6f, Ethyl 4-(4-bromophenyl)-5-((1-(3-methyl-6-(p-tolyl)imidazo[2,1-b]thiazol-2-yl)ethylidene) hydrazono)-4,5-dihydro-1,3,4-thiadiazole-2-carboxylate] | 156 to 158 °C | 57.5 ± 6.61 mg/L |  |
| CC(=O)c1nn(-c2ccc(C)cc2)c(=NN=C(C)c2sc3nc(-c4ccc(C)cc4)cn3c2C)s1 [Compound 6a, 1-(5-((1-(3-Methyl-6-(p-tolyl)imidazo[2,1-b]thiazol-2-yl)ethylidene)hydrazono)-4-(p-tolyl)-4,5-dihydro-1,3,4-thiadiazol-2-yl)ethanone] | 220 to 222 °C | 63.3 ± 12.8 mg/L | 25.1 ± 12 mg/L |
| CSC(=S)N/N=C(\C)c1sc2nc(-c3ccc(C)cc3)cn2c1C [Compound 3, methyl 2-(1-(3-methyl-6-(p-tolyl)imidazo[2,1-b]thiazol-2-yl)ethylidene) hydrazinecarbodithioate] | 182 to 184 °C |  |  |
| CC(=O)c1nn(-c2cccc(-n3nc(C(C)=O)s/c3=N\N=C(/C)c3sc4nc(-c5ccc(C)cc5)cn4c3C)c2)/c(=N/N=C(\C)c2sc3nc(-c4ccc(C)cc4)cn3c2C)s1 [Compound 11, 1,1’-(4,4’-(1,3-Phenylene)bis(5-((1-(3-methyl-6-(p-tolyl)imidazo[2,1-b]thiazol-2-yl)ethylidene)hydrazono)-4,5-dihydro-1,3,4-thiadiazole-4,2-diyl))diethanone] | 292 to 294 °C |  |  |
| CC(=NN=c1sc(C(=O)Nc2ccccc2)nn1-c1ccc([N+](=O)[O-])cc1)c1sc2nc(-c3ccc(C)cc3)cn2c1C [Compound 6h, 5-((1-(3-Methyl-6-(p-tolyl)imidazo[2,1-b]thiazol-2-yl)ethylidene)hydrazono)-4-(4-nitrophenyl)-N-phenyl-4,5-dihydro-1,3,4-thiadiazole-2-carboxamide] | 241 to 243 °C |  |  |
| CC(=NN=c1sc(C(=O)Nc2ccccc2)nn1-c1ccccc1)c1sc2nc(-c3ccc(C)cc3)cn2c1C [Compound 6g, 5-((1-(3-Methyl-6-(p-tolyl)imidazo[2,1-b]thiazol-2-yl)ethylidene)hydrazono)-N,4-diphenyl-4,5-dihydro-1,3,4-thiadiazole-2-carboxamide] | 209 to 211 °C | 33.2 ± 8.25 mg/L | 76.7 ± 4.14 mg/L |
